{"source": "patent US9050353B2", "about": "“Use of icariin and epimedium flavonoids containing icariin to treat diseases associated with myelin sheath lesion” (Xuanwu Hospital of Capital Medical University, priority 2010, dated 2015)", "key": {"[1]": {"tested_on": "experimental autoimmune encephalomyelitis (EAE) rat model", "experiment": "Nervous function damage score in EAE rat model", "type": "in vivo, Lewis rats", "conditions": "EAE rats, peak of attack; positive control drug, dose not given; scale 0-6", "method": "(§1) Preparation of rat model and administration: experimental autoimmune encephalomyelitis (EAE) model is an important tool for studying various human demyelinating diseases of nervous system. In the example, the preparation of EAE rat model was performed by multipoint immunizing female Lewis rats subcutaneously at tail root with a homogenate of spinal cord and cerebral gray matter of Guinea pig as well as complete Freund's adjuvant after emulsification. They were intragastrically administered with Epimedium flavanoids for 3 weeks.\nNervous function test method: the ethological changes of rats were observed by two experimenters using blind method every day. Nervous function damage scoring standard: 0 score, absence of symptom; 1 score, decrease of tail tension, visible evident slight gait awkward; 2 score, double hind limbs weak, walk difficult; 3 score, double hind limbs paralysis; 4 score, double hind limbs paralysis and fore limbs weak; 5 score, four limbs paralysis; 6 score, near death or died."}, "[2]": {"tested_on": "nitric oxide (NO)", "experiment": "NO content of cerebral cortex, biochemical kit, EAE rats", "type": "in vivo", "conditions": "positive control drug, dose not given", "method": "as §1\nExperimental objective: nitric-oxide synthase (NOS) catalyzes the generation of nitric oxide (NO). During inflammatory reaction, the activity of induced NOS increases, excess NO are generated and oxygen radicals are generated via oxidation, which may result in damages in nerve cells and myelin sheath. In this experiment, NOS activity and NO content were measured using biochemical kits in cerebral cortex of EAE rat model, and the effects of Epimedium flavanoids on changes thereof were observed. […]"}, "[3]": {"tested_on": "CNPase", "experiment": "CNPase positive cells of spinal cord lumbar intumescentia by immunohistochemical method, EAE rats", "type": "in vivo", "conditions": "positive control drug, dose not given", "method": "as §1\nExperimental objective: myelin sheath is formed with prominences of oligodendroglial cells. 2′3′-cyclic […]-3′-phosphodiesterase (CNPase) is a marker protein of mature oligodendroglial cells. In this experiment, CNPase content of cerebral cortex in EAE rat model was measured by Western blot method, CNPase content of spinal cord lumbar intumescentia was measured by immunohistochemical method; and the effects of Epimedium flavanoids on these contents were observed.\nExperimental method: the rats were anesthetized with 10% chloral hydrate on the 14th day of experiment, fixed by perfusion of 4% paraformaldehyde, spinal cord tissues were taken for frozen section. […] Pictures were analyzed using Image Pro plus5.0 software to count positive cells."}, "[4]": {"tested_on": "CNPase", "experiment": "Spinal cord CNPase by Western blot, EAE mice", "type": "in vivo", "conditions": "positive control drug, dose not given", "method": "Preparation of mice model and administration: experimental autoimmune encephalomyelitis (EAE) mice model is an important tool for studying various human demyelinating diseases of nervous system. In the present experiment, the preparation of EAE mice model was performed by immunizing female C57BL/6J mice with myelin sheath oligodendroglial cell surface glycoprotein MOG35-55. That is, the mice were subcutaneously injected at dorsal part of spinal column with 0.2 mL of MOG35-55 antigen elixir, and 0.2 ml of bordetella pertussis solution was intraperitoneally injected at the time of immunization injection and 48 h thereafter, respectively. Icariin was intragastrically administered after the last injection of bordetella pertussis solution, for consecutive 3 weeks.\nExperimental objective: myelin sheath is formed with prominences of oligodendroglial cells. CNPase, myelin basic protein (MBP) are marker proteins of mature oligodendroglial cells. The present experiment was to observe the expression of CNPase and MBP to represent the content of oligodendroglial cells in spinal cord of EAE model mice by Western blot method; and to study the effects of icariin on it.\nExperimental method: the mice were anesthetized and sacrificed, fresh spinal cord was taken on ice, total protein was extracted by cleavage on ice, to prepare Western blot sample, added separately with CNPase, MBP primary antibodies and incubated, added with corresponding secondary antibodies, ECL colorated, Kodak film exposed. Pictures were analyzed with Image J software and standardized with β-actin."}, "[5]": {"tested_on": "Brain-derived neurotrophic factor (BDNF)", "experiment": "BDNF of spinal cord lumbar intumescentia by immunohistochemical method, EAE rats", "type": "in vivo", "conditions": "positive control drug, dose not given", "method": "as §1\nExperimental objective: neurotrophic factors are important substances for constituting nerve regeneration microenvironment. Brain-derived neurotrophic factor (BDNF) is an important neurotrophic factor, can promote the regeneration and plerosis of myelin sheath. In this experiment, BDNF content of spinal cord lumbar intumescentia in EAE rat model was measured by immunohistochemical method, and the effects of Epimedium flavanoids on the content was observed.\nExperimental method: the rats were anesthetized with 10% chloral hydrate, fixed by perfusion of 4% paraformaldehyde, spinal cord tissues were taken for frozen section. Incubated with BDNF primary antibody, added with corresponding secondary antibody and third antibody, DAB colorated, observed under microscope, and pictures were analyzed using Image Pro plus5.0 software."}, "[6]": {"tested_on": "inflammatory cell infiltration of spinal cord lumbar intumescentia in EAE rat model", "experiment": "Inflammatory cell infiltration of spinal cord lumbar intumescentia, HE staining, EAE rats", "type": "in vivo", "conditions": "positive control drug, dose not given, scale 0-4", "method": "Preparation of rat model and administration: experimental autoimmune encephalomyelitis (EAE) model is an important tool for studying various human demyelinating diseases of nervous system. In the example, the preparation of EAE rat model was performed by multipoint immunizing female Lewis rats subcutaneously at tail root with a homogenate of spinal cord and cerebral gray matter of Guinea pig as well as complete Freund's adjuvant after emulsification. They were intragastrically administered with Epimedium flavanoids for 3 weeks. […]\nExperimental method: the rats were anesthetized with 10% chloral hydrate on the 14th day of experiment, fixed by perfusion of 4% paraformaldehyde, spinal cord tissues were taken for making paraffin sections, section thickness 4 μm. (1) Stained with LFB, observed under microscope, and scored according to the following standard: 0 score, absence of myelinoclasis; 1 score, one small range of myelinoclasis; 2 score, 2 or 3 small ranges of myelinoclasis; 3 score, 1 to 2 large ranges of myelinoclasis; 4 score, large ranges of myelinoclasis accumulatively existing in 20% or more of white matter regions. […]"}}, "data": [{"compound": "CC(=O)OCC(=O)[C@@]1(O)CC[C@H]2[C@@H]3CCC4=CC(=O)C=C[C@]4(C)[C@H]3C(=O)C[C@@]21C", "note": "[prednisone acetate]", "values": [{"measurement": "Nervous function damage score", "setting": "[1]", "value": "0.83 ± 0.48"}, {"measurement": "NO content", "setting": "[2]", "value": "0.77 ± 0.01", "unit": "mmol/mg protein"}, {"measurement": "CNPase positive cell count", "setting": "[3]", "value": "1378.2 ± 125.4"}, {"measurement": "CNPase/actin Integration grey level", "setting": "[4]", "value": "1.20 ± 0.01"}, {"measurement": "integrated optical density of BDNF positive cell", "setting": "[5]", "value": "3.64 ± 0.23 ×10^5"}, {"measurement": "total area of BDNF positive cell", "setting": "[5]", "value": "9.43 ± 1.12 ×10^5"}, {"measurement": "Inflammatory cell infiltration (HE staining score)", "setting": "[6]", "value": "1.00 ± 0.29"}]}]}
